# Test results from patent US12403114B2, “Cannabinoid acid ester compositions and uses thereof” (EPM (IP), INC., priority 2019, dated 2025).
# Assays:
# [1] = tested on: chronic colitis in IL-10 KO mice; assay: Chronic colitis mouse model (IL-10 KO), Example 12; type: in vivo; details: IL-10 KO mice fed twice a day for 13 weeks
# Protocol: Mice with targeted discruption of the IL-10 gene (IL-10 KO) and littermate wild-type controls (IL-10 WT) were used (see for example Scheinin et al., Clin. Exp. Immunol., 2003, 133:38-43). After 4 weeks of age mice were fed twice a day for 13 weeks with one of the following treatments: CBD, CBDA-Me, an anti-TNF antibody (control), none (untreated control mice). The CBDA-Me efficacy is compared to CBD and controls.
# Cytokine levels of IL-1B and TNFα were measured using ELISA kits (R&D Systems, USA). Colon TNFα (FIG. 14), blood IL-1b (FIG. 15), and mouse endoscopic index of colitis severity (MEICS) scoring levels (FIG. 16) were lower in mice treated with CBDA-Me compared to CBD.
# [2] = tested on: Human Endometrial Stromal Cell Line (SHT290); assay: In vitro endometriosis model: attachment and proliferation of endometrial stromal cells; type: cell-based; details: added to the medium; dose dependent fashion
# Protocol: Cultured cells from Human Endometrial Stromal Cell Line (SHT290) were used. CBDA-Me was added to the medium and the attachment of cells and their proliferation rate were measured.
# [3] = tested on: endometriosis induced by implantation of rat uterine cornu on the mesenterium; assay: In vivo rat endometriosis model, pain response to oxytocin; details: day 24; injected intra-peritoneally after 21 days; as compared to the control (saline)
# Protocol: Endometriosis was induced by implantation of rat uterine comu on the mesenterium. The tissue was allowed to proliferate in vivo for 21 days. After 21 days, rats in the control group were injected intra-peritoneally with saline while rats in the experimental group were injected with CBDA-Me. Pain response to oxytocin was measured on day 24. The pain response decreased by 50% in the group treated with CBDA-Me as compared to the control.
# [4] = tested on: Th17 (psoriasis) mediated inflammation; assay: Ex vivo induced inflammation of human skin explants, Th17 stimulation; type: cell-based; details: topical at 40 h and 16 h prior to stimulation; degree comparable/improved to 1% hydrocortisone ointment (FIG. 7)
# Protocol: (§1) The efficacy of CBDA-Me was compared to that of corticosteroid treatment in an ex vivo model of induced inflammation of human skin explants (see for example WO2019/063122 and WO2014/182655).
# (§2) Freshly excised healthy human skin was dermatomed to an approximate thickness of 750±100 μm. The dermatomed skin was cut into 1 cm^2 sections and mounted onto static Franz cells with a dosing area of approximately 0.6 cm^2.
# (§3) The experiment was performed as follows: • (i) Static Franz cells (n=4 per treatment), with an average surface area of approximately 0.6 cm^2 and a volume of approximately 2.0 mL were employed. • (ii) Skin was mounted onto the static Franz cell, Stratum corneum side up, and clamped into place. • (iii) The receptor compartment was filled with approximately 2 mL of warm (ca. 37° C.) Cornification media. • (iv) CBDA-Me or 1% Perrigo® hydrocortisone ointment (control) was applied topically at 40 hours and 16 hours prior to stimulation and was incubated at 37° C. with 5% C02. • (v) The contents of the receptor compartment from each cell was vacuum aspirated and replaced with 2 mL pre-warmed (ca. 37° C.) cornification media, containing either Th1 or Th17 stimulation cocktail. • (vi) Tissue explants were harvested at 24 hours post-stimulation and placed in RNAlater® solution for further processing. […]
# [5] = tested on: Th1 (chronic and acute atopic dermatitis) mediated inflammation; assay: Ex vivo induced inflammation of human skin explants, Th1 stimulation; type: cell-based; details: topical at 40 h and 16 h prior to stimulation; degree comparable/improved to 1% hydrocortisone ointment (FIG. 6)
# Protocol: as §1, §2, §3
# [6] = tested on: DSS induced acute colitis; assay: DSS induced acute colitis mouse model, Example 11; type: in vivo, C57BL/6 mice
# Protocol: The therapeutic effect of CBDA-Me on inflammatory bowel disease (IBD) was examined in an acute colitis mouse model. Colitis was induced in 10 weeks old female C57BL/6 mice using dextran sodium sulphate (DSS). Mice were fed for 8 days with 2% (wt/vol) DSS in their drinking water. Mice were administered (3 animals in each group) one of the following treatments by gavage: CBD (400 mg/kg), CBDA-Me (10 mg/kg or 40 mg/kg), DSS alone (untreated control), prednisone (90 mg/kg, control), none (healthy mice).
# (§4) Weight loss was measured on days 1, 3, 5, 8, and 10.
# (§5) Next, the mice were sacrificed and the length of their colons were measured.
# Cytokine levels of IL-6 and TNFα were measured using ELISA kits (R&D Systems, USA). Colon TNFα (FIG. 10), blood IL-6 (FIG. 11), and mouse endoscopic index of colitis severity (METICS) scoring levels (FIG. 12) were lower in mice treated with CBDA-Me compared to CBD. Representative photos of colonoscopy can be seen in FIG. 13A-13E.
# [7] = molecular target: T1, serotonin 5-HT1A Receptor (Homo sapiens, UniProt P08908); details: CBDA activates the receptor; background statement; cited from earlier work
# T1 sequence (P08908 1-422): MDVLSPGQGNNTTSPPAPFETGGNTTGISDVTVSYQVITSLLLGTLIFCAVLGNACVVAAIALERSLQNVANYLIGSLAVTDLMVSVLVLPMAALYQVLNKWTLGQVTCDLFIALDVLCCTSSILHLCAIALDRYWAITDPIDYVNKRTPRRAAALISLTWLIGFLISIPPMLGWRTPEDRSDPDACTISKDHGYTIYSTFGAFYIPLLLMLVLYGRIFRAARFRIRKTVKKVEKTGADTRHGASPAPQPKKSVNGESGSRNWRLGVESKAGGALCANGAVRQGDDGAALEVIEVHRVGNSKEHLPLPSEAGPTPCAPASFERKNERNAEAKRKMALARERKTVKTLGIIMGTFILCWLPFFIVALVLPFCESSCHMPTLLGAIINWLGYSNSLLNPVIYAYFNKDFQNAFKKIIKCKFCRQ
# [8] = tested on: partial meniscectomy/ACL transection rat model of surgical induced osteoarthritis and pain induced incapacitance; assay: Weight bearing in rat meniscectomy model versus hyaluronate and corticosteroid, Example 6; type: in vivo
# Protocol: Rats were allowed to acclimatize for 1 week, followed by assessment of their weight bearing preference using an incapacitance meter. Unilateral medical meniscectomy and anterior cruciate ligament […] (MMX/ACLT) surgery was performed on the right knee of a subject rat. Weight bearing preference was tested before and after surgery. After 2 weeks, treatments with both intra-articular (1) and. intra-peritoneal (6) administrations of EPM301 began in the EPM301 group. In the hyaluronate (HA) and corticosteroid (CS) groups, a single intra-articular injection was performed 2 weeks after model induction. Weight bearing preference was then assessed 4 and 7 days after the start of therapy.
# Wistar Rats (HsdHan female rats 225-249 grams) were acquired from Envigo. The rats were evaluated using an incapacitance tester. They were tested pre-operation, one-week post-operation, two weeks post-operation, prior to injection, 4 and 7 days post injections.
# EPM-301 was dissolved in a solution mixture of 1:1:18 EtOH:cremophor:seline to a final concentration of 3.5 mg/mL. Hyaluronic acid (Arthrease, 1% sodium hyaluronate) and Dexamethasone (kem Pharma, Venus, 72, Pol. Ind. Colom II, 08228 Terrassa, Barcelona) were acquired.
# Intra-articular (i.a.) injection was carried out with 100 uL and intra-peritoneal (i.p.) injections were carried out with 150 uL. All were injected i.a. in the first day. EPM-301 was injected via i.p. administration on the first day, and for 5 additional days everyday via i.p. administration.
# Student's t-test was performed at the last follow-up time to determine effect of the therapy as primary endpoint. The level of significance was 0.05 alpha. ANOVA was used to compare all time points, a post-hob analysis with the Scheffe all comparisons method was performed. Calculations were performed using the Analyze-it Excel add-on function.
# The percentage of weight bearing was calculated as the amount of weight born (in grams) on the right hind limb divided by the amount of weight born on the left hind limb. This ratio was expressed as percentage weight bearing. Prior to operation the Rt/Lt weight bearing in both groups was similar. There were 4 animals in the EPM-301 treated group and 8 animals in each of the HA and CS treated groups, with a total of 20 tested subjects.
# [9] = molecular target: T2, glucose transporter 2 (GLUT2) (Homo sapiens, UniProt P11168); assay: 2-NBDG glucose uptake in transfected HEK293t cells; type: cell-based; details: 50-0.1 μM tested
# T2 construct: expressed in transfected cells; host or cells: HEK293t
# T2 sequence (P11168 1-524): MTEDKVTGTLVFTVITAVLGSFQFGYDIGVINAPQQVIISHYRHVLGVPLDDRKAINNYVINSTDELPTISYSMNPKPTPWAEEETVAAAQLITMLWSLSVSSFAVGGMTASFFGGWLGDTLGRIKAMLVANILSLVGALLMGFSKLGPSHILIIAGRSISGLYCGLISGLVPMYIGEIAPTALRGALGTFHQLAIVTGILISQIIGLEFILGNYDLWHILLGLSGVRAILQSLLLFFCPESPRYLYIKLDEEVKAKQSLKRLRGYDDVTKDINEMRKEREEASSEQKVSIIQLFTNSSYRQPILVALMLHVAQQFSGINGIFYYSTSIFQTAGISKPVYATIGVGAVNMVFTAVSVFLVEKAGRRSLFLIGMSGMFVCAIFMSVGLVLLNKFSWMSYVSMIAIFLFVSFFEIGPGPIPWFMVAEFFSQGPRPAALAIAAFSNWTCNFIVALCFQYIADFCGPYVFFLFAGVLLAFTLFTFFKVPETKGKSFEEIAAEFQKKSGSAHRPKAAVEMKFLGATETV
# Protocol: In vitro assays for measuring glucose uptake were designed to assess whether EPM-301 and EPM-302 compounds are capable of inhibiting or increasing glucose uptake via glucose transporters (GLUTs).
# Transfected HEK293t cells, which express the glucose transporter 2 (GLUT2), were cultured in a 96 well plate and maintained at 37° C. in 5% CO2 in DMEM medium supplemented with 10% FCS, 2 mM 1-glutamine, 1 mM sodium pyruvate, 100 U/mL penicillin, and […] streptomycin for 24 h. The medium was then washed with a choline chloride Na^+-free buffer (CCB), in which only GLUTs (and not the sodium/glucose transporters [SGLTs]) were active. The wells were then added with CCB/CCB+2-NBDG (a fluorescent derivative of glucose). Compounds were tested in a range of concentrations for their ability to inhibit/increase 2-NBDG uptake into the cells. After 1.5 h incubation, cells were washed with CCB and incubated with 1 μg/μL of Hoechst for 15 mins at 37° C. and protected from light. Fluorescence was measured by the Cytation-3 plate reader at ex:485 nm/em:528 nm and ex:350 nm/em:461 nm for 2-NBDG Hoechst, respectively. Results of the 2-NBDG levels were normalized to Hoechst levels of each well, and presented as a change in the uptake of 2-NBDG in comparison with Vehicle-treated group.
# Vehicle solution (choline chloride buffer), EPM-301 (50-0.1 μM), and EPM-302 (50-0.1 μM) were used for the experiments.
# Values are expressed as mean±SEM. Unpaired two-tailed student's t-test was used to determine the differences between the groups. Significance was set at p<0.05. *versus vehicle; #versus control.
# [10] = tested on: DSS induced acute colitis; assay: DSS induced acute colitis mouse model, EPM-301 versus EPM-302, Example 13; type: in vivo, C57BL/6 mice; details: 10 mg/kg
# Protocol: Colitis was induced in 10 weeks old female C57BL/6 mice using dextran sodium sulphate (DSS). Mice were fed for 8 days with 2% (wt/vol) DSS in their drinking water. […] EPM-302 served as an additional control.
# as §4, §5
# Cytokine levels of IL-6 and TNFα were measured using ELISA kits (R&D Systems, USA). Colon TNFα (FIG. 19), blood IL-6 (FIG. 20), levels were lower in mice treated with CBDA-Me (EPM-301) as compared to EPM-302. Similarly, the MEICS score of EPM-301 treated subjects were also lower than EPM-302 treated subjects (FIG. 21). Representative photos of colonoscopy can be seen in FIG. 22A-22D.
smiles,measurement,setting,value
"C=C(C)[C@@H]1CCC(C)=CC1c1c(O)cc(CCCCC)c(C(=O)OC)c1O (stereo in doubt) [EPM-301, cannabidiolic acid methyl ester]",colon TNFα,[1]; compared to CBD (FIG. 14),lower
same,blood IL-1b,[1]; compared to CBD (FIG. 15),lower
same,mouse endoscopic index of colitis severity (MEICS) scoring,[1]; compared to CBD (FIG. 16),lower
same,attachment of cells,[2],decrease
same,proliferation rate,[2],decrease
same,decrease of pain response to oxytocin,[3],50%
same,"Th17 mediated inflammation (IL17α, IL22, CXCL10, IL36g, SerpinB4 by RT-qPCR)",[4],inhibition
same,"Th1 mediated inflammation (IFNγ, TNFα, IL1β, IL2, IL13 by RT-qPCR)",[5],inhibition
same,weight loss,"[6]; 40 mg/kg by gavage, compared to CBD (400 mg/kg), days 1-10 (FIG. 8)",reduced
same,colon length,"[6]; 40 mg/kg by gavage, versus CBD and untreated control mice, similar to prednisone (FIG. 9)",greater
same,mouse endoscopic index of colitis severity scoring,[6]; compared to CBD (FIG. 12),lower
same,colon TNFα,"[6]; compared to CBD, ELISA (FIG. 10)",lower
same,blood IL-6,"[6]; compared to CBD, ELISA (FIG. 11)",lower
"C=C(C)C1CCC(C)=CC1c1c(O)cc(CCCCC)c(C(=O)O)c1O (stereo not shown) [CBDA, 2,4-dihydroxy-3-[3-methyl-6-prop-1-en-2-ylcyclohex-2-en-1-yl]-6-pentylbenzoic acid]",affinity for the 5-HT1A receptor relative to CBD,[7],significantly greater
"C[C@@H]1C[C@H]2[C@@H]3CCC4=CC(=O)C=C[C@]4(C)[C@@]3(F)[C@@H](O)C[C@]2(C)[C@@]1(O)C(=O)CO [CS, Dexamethasone, reference compound]",Rt limb weight bearing,"[8]; following injections, EPM-301 i.a. once plus i.p. 6 days, HA and CS single i.a. injection",62.1%
same,weight bearing,"[8]; immediately prior to injection, two weeks following model induction (baseline before treatment)",52.5%
CCCCCc1cc(O)c(C2C=C(C)CCC2C(C)C)c(O)c1C(=O)OC (stereo not shown) [EPM-302],concentration at which the effect on glucose transport was observed,[9],all concentrations tested
same,glucose uptake (2-NBDG) in HEK293 cells,"[9]; 1.5 h incubation, versus vehicle (FIG. 36A, 36B)",significantly reduce
same,therapeutic effect,[10],not enough to induce a therapeutic effect
